# Assay results as given in PMC10652874, “Investigation into the mechanism of action of the antimicrobial peptide epilancin 15X” (Frontiers in Microbiology, 2023).
# Where two headings read alike, the source gives them in different places. Where no end group is shown, it is not given here.
# Columns and labels:
# [1] = tested on: LiaRS response in B. subtilis BSF2470; assay: LiaRS disk diffusion reporter assay (β-galactosidase, X-Gal); type: cell-based, Bacillus subtilis; settings: 37°C overnight
# Experimental: The LiaRS response was determined via disk diffusion as described previously ([Mascher et al., 2004]). Briefly, B. subtilis strain BSF2470 was grown in LB supplemented with erythromycin (1 μg/mL) overnight at 37°C with shaking. A total of 20 μL of overnight culture was mixed with 100 μL of 20 mg/mL X-Gal (dissolved in DMF) and 5 mL of 0.7% soft LB agar then poured onto a 1.5% LB agar base. The plates were allowed to cool and dry at room temperature for 20 min. The desired molecule was either spotted on a filter paper disk and placed on top of the agar or directly spotted on the agar. The following molecules were tested: ampicillin, 0.5 μL on filter disk, 1 μL directly spotted, 100 mg/mL; compound 1771/LtaS-IN-1, 4 μL, 20 mM (dissolved in DMSO); epilancin 15X, 4 μL, 5 mM; vancomycin, 1 μL, 100 mg/mL; nisin, 4 μL, 2 mM; bacitracin, 4 μL on filter disk, 5 μL directly spotted, 100 mg/mL; water, 5 μL; magainin 2, 10 μL, 1 mM; melittin, 10 μL, 1 mM. The plate was incubated at 37°C overnight. After overnight incubation, the plate was imaged. Compound 1771 (CS-0114233) was purchased from ChemScene LLC.
# To investigate the effect of epilancin 15X on the cell envelope, we employed the two-component LiaRS reporter system in B. subtilis (lipid II cycle interfering antibiotic response regulator and sensor; [Mascher et al., 2004]). Briefly, the LiaRS assay is a disk diffusion assay used to screen for the ability of compounds to induce β-galactosidase expression in engineered B. subtilis BSF2470 ([Mascher et al., 2004]). Molecules that produce a blue ring around the edge of the zone of growth inhibition are believed to interfere with the lipid II cycle ([Hachmann et al., 2009]). […] The compound 1771, also called LtaS-IN-1, inhibits lipoteichoic acid (LTA) synthesis ([Richter et al., 2013]) and to the best of our knowledge has not been tested in the LiaRS assay.
# [2] = tested on: LiaRS response in B. subtilis BSF2470; settings: cited from earlier work
# Description: To investigate the effect of epilancin 15X on the cell envelope, we employed the two-component LiaRS reporter system in B. subtilis (lipid II cycle interfering antibiotic response regulator and sensor; [Mascher et al., 2004]). Briefly, the LiaRS assay is a disk diffusion assay used to screen for the ability of compounds to induce β-galactosidase expression in engineered B. subtilis BSF2470 ([Mascher et al., 2004]). Molecules that produce a blue ring around the edge of the zone of growth inhibition are believed to interfere with the lipid II cycle ([Hachmann et al., 2009]). Most membrane disrup ...
# S. carnosus TM300 [3] = assay: Agar diffusion bioactivity assay with lipids in flanking wells; type: cell-based, Staphylococcus carnosus; settings: S. carnosus TM300 on BHI agar, overnight
# Experimental: For agar diffusion antimicrobial activity assays, the autoclaved 1.5% agar was prepared in the appropriate medium and cooled in a 40°C water bath for 15 min. A total of 50 μL overnight culture of the sensitive strain was added to the agar and kept in the water bath. A total of 25 mL seeded agar was poured into a sterile OmniTray (Nunc) and allowed to solidify at room temperature for 30 min. An additional 35 mL of seeded agar was poured over the lower solidified agar layer. A sterile 96-well PCR plate was placed in the molten agar upper layer, and the agar was allowed to solidify at 25°C for 30 min. After sufficient solidification, the 96-well PCR plate was removed. Then 20 μL volume of each peptide was dispensed into the wells. Plates were left at 25°C for 30 min until the wells were dried, and the plates were incubated at 37°C overnight. The antibacterial activity was determined by the presence or absence of growth inhibition.
# Figure S5. (A) Zones of growt h inhibition of epilancin 15X a nd nisin A against S. carnosus TM30 0 grown on BHI agar plates. The indicated amounts of antibiotics were placed in the well shown in the center of the zone of inhibition. […]
# S. carnosus TM300 [4] = assay: MIC determination in 96-well microtiter plate; type: cell-based, Staphylococcus carnosus; settings: BHI, 37°C, 10^5 CFU/mL, OD600 after 18 h
# Experimental: (§1) MIC determination was performed in a 96-well microtiter plate as described previously ([Wu et al., 2019]). Sensitive bacterial culture was grown in the appropriate medium (BHI for S. carnosus; LB for B. subtilis) at 37°C overnight. The culture was diluted to 10^5 CFU/mL in medium in each well. Epilancin 15X or its analog was dissolved in water and serially diluted to obtain final concentrations of 20, 10, 5, 2.5, 1.25, 0.625, 0.3125, 0.156, 0.078, 0.039, 0.019, and 0.009 μM. OD600 readings were obtained after 18 h using a Synergy H4 Hybrid Multi-Mode Microplate Reader (BioTeK). Cell-free untreated medium, and untreated cell culture were used as negative controls. The MIC of nisin against B. subtilis BSF2470 was determined following the same methods.
# S. carnosus TM300 [5] = assay: Membrane permeability study with propidium iodide (flow cytometry); type: cell-based, Staphylococcus carnosus; settings: S. carnosus TM300, 20 min exposure, 0.5x, 1x, 4x MIC, n = 3
# Experimental: (§2) Cultures of S. carnosus TM300 and B. subtilis BSF2470 were grown to OD600 1.0 and diluted to OD600 0.1 in fresh BHI or LB medium, respectively. The culture was then combined with a final concentration of 25 μM PI (ThermoFisher P3566), 1 mM HEPES, and 1 mM glucose. […] Another two tubes were prepared without antibiotic treatment as controls. The culture was analyzed with a BD Biosciences LSR II flow cytometer for S. carnosus and a BD Biosciences LSRFortessa for B. subtilis using excitation at 488 nm with an argon laser and measurement of emission through a band-pass filter at 695/40 nm. A minimum of 30,000 events were detected for each sample. The experiment was repeated three times, and the mean PI uptake value was determined. The results were calibrated such that the mean PI uptake from the 4x MIC nisin-treated cell culture was set as 100% PI uptake.
# S. carnosus TM300 [6] = assay: Bright field (Airyscan) microscopy; type: cell-based, Staphylococcus carnosus; settings: S. carnosus TM300, 0.5 MIC
# [7] = tested on: B. subtilis BSF2470 (1A980); assay: MIC determination in 96-well microtiter plate; type: cell-based, Bacillus subtilis; settings: LB, 37°C, 10^5 CFU/mL, OD600 after 18 h
# Experimental: as §1
# [8] = Liposome leakage assay using flow cytometry (HaloTag / AF488 ligand); type: biochemical; settings: 1 μM peptide, 37°C, 1 h
# B. subtilis BSF2470 = assay: Membrane permeability study with propidium iodide (flow cytometry); type: cell-based, Bacillus subtilis; settings: B. subtilis BSF2470, 20 min exposure, 0.5x, 1x, 4x MIC, n = 3
# Experimental: as §2
compound,measurement,setting,value
Bacitracin,LiaRS response (blue ring at the edge of the zone of inhibition),[1],induce a LiaRS response
melittin,LiaRS response (blue ring at the edge of the zone of inhibition),[1],did not induce a LiaRS response
CC1(C)S[C@@H]2[C@H](NC(=O)[C@H](N)c3ccccc3)C(=O)N2[C@H]1C(=O)O [ampicillin],LiaRS response (blue ring at the edge of the zone of inhibition),[1],did not induce a LiaRS response
polymyxin,LiaRS response,"[2]; ref Wex et al., 2021",do not induce a LiaRS response
CN[C@H](CC(C)C)C(=O)N[C@H]1C(=O)N[C@@H](CC(N)=O)C(=O)N[C@H]2C(=O)N[C@H]3C(=O)N[C@H](C(=O)N[C@H](C(=O)O)c4cc(O)cc(O)c4-c4cc3ccc4O)[C@H](O)c3ccc(c(Cl)c3)Oc3cc2cc(c3O[C@@H]2O[C@H](CO)[C@@H](O)[C@H](O)[C@H]2O[C@H]2C[C@](C)(N)[C@H](O)[C@H](C)O2)Oc2ccc(cc2Cl)[C@H]1O [vancomycin],LiaRS response (blue ring at the edge of the zone of inhibition),[1],induce a LiaRS response
tunicamycin,LiaRS response,"[2]; B. subtilis, ref Mascher et al., 2004",positive LiaRS response
O=C(COC(=O)Cc1coc2ccc3ccccc3c12)Nc1nnc(-c2ccccc2)o1 [LtaS-IN-1],LiaRS response (blue ring at the edge of the zone of inhibition),[1],did not induce a blue zone
colistin,LiaRS response,"[2]; ref Wex et al., 2021",do not induce a LiaRS response
magainin 2,LiaRS response (blue ring at the edge of the zone of inhibition),[1],did not induce a LiaRS response
CC[C@@]1([C@@H]2O[C@@H]([C@H]3O[C@@](O)(CO)[C@H](C)C[C@@H]3C)C[C@@H]2C)CC[C@H]([C@]2(C)CC[C@]3(C[C@H](O)[C@@H](C)[C@@H]([C@@H](C)[C@@H](OC)[C@H](C)C(=O)O)O3)O2)O1 [monensin],LiaRS response,"[2]; ref Wex et al., 2021",do not induce a LiaRS response
"nisin: lantibiotic, lipid II binding pore former, positive control (ITSISLCTPGCKTGALMGCNMKTATCHCSIHVSK; not fully specified (some residues, bridges); cysteine pairing not given here; UniProt P13068 24-57, looked up) [reference compound]",LiaRS response (blue ring at the edge of the zone of inhibition),[1],induce a LiaRS response
same,antagonism of bioactivity (zone of growth inhibition) by purified S. aureus LTA,S. carnosus TM300 [3],not
same,MIC,S. carnosus TM300 [4],0.5 µM
same,PI uptake (membrane disruption),S. carnosus TM300 [5],more substantial
same,aggregation phenotype of cells (brightfield),S. carnosus TM300 [6],Aggregation was not observed
same,MIC,[7],0.625 µM
same,fluorescence signal (pore formation),[8]; POPC-cholesterol liposomes with 0.1% lipid II,substantial increase in fluorescence signal
same,fluorescence signal (pore formation) compared to buffer control,[8]; POPC-cholesterol liposomes without lipid II,no increase in fluorescence signal
same,PI uptake (membrane disruption),B. subtilis BSF2470,more substantial
